Experiment in all cases: inhibition of tumour cell growth, NCI panel, 48 h
For test [1], the system named is M19-MEL melanoma.
Test [2] concerns NCI-H23 lung.
Test [3] deals with SK-OV-3 ovarian.
The subject of test [4] is A498 renal.
Test [5] deals with UACC-62 melanoma.
Test [6] concerns HOP-18 NSCLC.
The test system of test [7] is HL-60(TB) leukemia.
The test system of test [8] is SF-539 CNS.
The test system of test [9] is COLO 205 colon.
Test [10] deals with HS 578T breast.

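Dose response: 5 concentrations. Exposure: 48 h. Format: 96-well plates. Endpoint: linear interpolation; highest concentration if not reached. The concentration for full growth arrest is given as TGI.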

Consider `O=C(CN(Cc1ccccc1)Cc1ccccc1)N1CCc2c([nH]c3ccccc23)C1c1cccnc1` (configuration not stated), for which the TGI in test [1] was 31.4 µM; in [2] it was 79.3 µM; in test [3], above 100 µM; in test [4], 61.5 µM; in test [5], 30.7 µM; in test [6], above 100 µM. The TGI in test [7] came to 4.17 µM; in test [8] it was 26.6 µM.
As to `COC(=O)C(=O)C(C#N)c1cccc(Cl)c1` (configuration not stated), the TGI in test [9], in test [1], in test [2], in test [3], in test [4] and in test [5] was above 100 µM each time. For the same compound, the TGI in [6], in [7] and in test [8] was above 100 µM throughout.
Take `Cc1cc2nc3c(=O)[nH]c(=O)nc-3n(CC(O)C(O)C(O)CO)c2cc1N` (configuration not stated): the TGI in test [9], in test [1], in [2], in test [3], in [4] and in test [5] was above 100 µM throughout. The TGI in test [6], in test [7] and in test [8] was above 100 µM throughout.
In the case of `CCC1(OC(=O)CNC)C(=O)OCc2c1cc1n(c2=O)Cc2cc3ccccc3nc2-1` (configuration not stated), the TGI is 1.54 µM in [9]; 40.8 µM in test [10]; 0.823 µM in test [1]; 0.11 µM in test [2]; 0.152 µM in [3]; 0.104 µM in test [4]. For the same compound, the TGI was 0.0186 µM in test [5], 0.812 µM in [6], 0.159 µM in test [7] and below 0.0203 µM in [8].
For `O=C1C(Cl)=C(Cl)C(=O)N1c1ccccc1Cl`, the TGI in test [9], in test [1], in [2], in test [3], in test [4] and in test [5] was above 100 µM in each case. Further, the values for the TGI in test [6], in test [7] and in test [8] were above 100 µM, 21.7 µM and above 100 µM, respectively.
As for `O=C(CCC(=O)Nc1ccc(Cl)cc1)CC(=O)c1ccc2ccccc2c1`, the TGI in test [9], in [1], in test [2], in test [3], in test [4] and in test [5] was above 100 µM each time. The TGI in test [6], in test [7] and in test [8] was above 100 µM each time.
For `CCOC(=O)NC(=O)c1cn(CCCCCCCCCCC(=O)NCCCN2CCN(CCCNC(=O)CCCCCCCCCCn3cc(C(=O)NC(=O)OCC)c(=O)[nH]c3=O)CC2)c(=O)[nH]c1=O`, the TGI in test [9], in [1], in test [2], in test [3], in test [4] and in test [5] was above 100 µM each time. For the same compound, the TGI in [6], in [7] and in [8] was above 100 µM each time.
In the case of `O=C(Nc1ccccc1)n1cc(-c2ccccn2)c(N2CCOCC2)n1`, the TGI in [9] was above 100 µM; in test [1], above 100 µM; in test [3] it was above 100 µM; in test [4], 51.1 µM; in test [5] it was above 100 µM; in [6], above 100 µM. Besides, the TGI turned out to be 6.93 µM in test [7] and 57.6 µM in [8].
Take `COC(=O)C(=NNc1ccccc1[N+](=O)[O-])C(=O)OC`: the TGI in [9], in [1], in test [2], in test [3], in test [4] and in test [6] was above 100 µM throughout. Besides, the TGI in [7] and in test [8] was above 100 µM in each case.
In the case of `CCC(C)C(=O)O[C@H]1C(=O)O[C@@H]2C[C@H]3C(C)=CC(=O)[C@@H](O)[C@]3(C)[C@H]3[C@@H](O)[C@H](O)[C@@]4(C)OC[C@]32[C@@H]14` (some centres not stated), the TGI in test [9] is 0.278 µM; in test [10], below 0.01 µM; in [1], 0.0909 µM; in test [2], below 0.01 µM; in [3], 0.58 µM; in test [4], below 0.01 µM. The TGI was below 0.0434 µM in [5], 0.596 µM in test [6], below 0.01 µM in test [7] and 0.0334 µM in [8].
In the case of `N#CCCN(C1=NN(C(=O)CC(=O)Nc2ccc(Cl)cc2)C(c2ccccc2)C1)c1ccc(Cl)cc1` (configuration not stated), the TGI in [9], in [1], in test [2], in test [4], in test [5] and in test [6] was above 100 µM throughout. Besides, the TGI in test [7] and in [8] was above 100 µM each time.
On to `N#CC(C#N)=Cc1ccc(C(O)P(=O)(O)O)cc1` (configuration not stated), for which the TGI in test [9], in test [1], in test [2], in test [3], in test [4] and in test [5] was above 100 µM in each case. Moreover, the TGI in [6], in [7] and in [8] was above 100 µM in each case.
For the compound `Cn1cnc([N+](=O)[O-])c1Sc1nc2ccccc2o1`, the TGI is 3.4 µM in test [9]; 23.7 µM in [1]; 17.1 µM in test [2]; above 81.2 µM in test [3]; 45.2 µM in [4]; 25.5 µM in test [5]. Also, the TGI in test [6] amounted to 1.36 µM; in [7], 3.79 µM; in test [8] it was 24.1 µM.
With `Cc1ccccc1C=NC12CC3CC(CC(C3)C1)C2`, the TGI in test [9], in test [1], in test [2], in test [3], in [4] and in test [5] was above 100 µM each time. For the same compound, the TGI in test [6], in test [7] and in test [8] was above 100 µM in each case.
As for `CC12CC/C(=N/NC(N)=O)C3C1CCCC32`, the TGI in [9], in [1], in [2], in [3], in [4] and in test [5] was above 100 µM in each case. In addition, the TGI in [6], in test [7] and in test [8] was above 100 µM throughout.
`N#CC(C(=O)CCC(=O)Nc1ccc(Cl)cc1)c1ccc(Cl)cc1` (configuration not stated): the TGI in [9], in test [1], in test [2], in [3], in [4] and in test [5] was above 100 µM each time. The TGI in test [6], in [7] and in test [8] was above 100 µM in each case.

The record behind these values is PubChem BioAssay (NCI).
